Reference: publication PMC9597602, “Metal Complexes as Antifungals? From a Crowd-Sourced Compound Library to the First In Vivo Experiments” (JACS Au, 2022)
Like-named read-outs stand apart in the source and are kept apart here.

Experiments:
human red blood cells = type: cell-based
Outline: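 Washed human erythrocytes at 0.5 × 10^8 cells/mL incubated with compound, then centrifuged. Haemolysis read as supernatant OD405, normalised to untreated cells (0%) and 1% Triton X-100 (100%), with melittin as internal plate control.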

[1] = tested on: Cryptococcus deuterogattii CBS7750 VGII; Serotype B; assay: Antifungal MIC assay, extended panel; type: cell-based; conditions: extended panel, second batch; ≥80 or ≥50% inhibition
Outline: (§1)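 Yeasts grown 3 days on YPD agar at 30 °C; suspension diluted in YNB medium to a final 2.5 × 10^3 CFU/mL and exposed to compound at 35 °C for 36 h without shaking. MIC taken as lowest concentration giving ≥80% growth inhibition (CLSI M27 score 0–1).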

[2] = tested on: Candida tropicalis ATCC 750; assay: Antifungal MIC assay, extended panel; type: cell-based; conditions: extended panel, second batch; ≥80 or ≥50% inhibition
Outline: as §1

[3] = tested on: Candida glabrata ATCC 90030 NCCLS 84; assay: Antifungal MIC assay, extended panel; type: cell-based; conditions: extended panel, second batch; ≥80 or ≥50% inhibition
Outline: as §1

[4] = tested on: Cryptococcus deuterogattii ATCC 32609 VGII; assay: Antifungal MIC assay, extended panel; type: cell-based; conditions: extended panel, second batch; ≥80 or ≥50% inhibition
[5] = tested on: Cryptococcus neoformans H99 ATCC 208821 type strain; assay: Antifungal MIC assay; type: cell-based; conditions: for MIC Cryptococcus neoformans ATCC 208821 / MIC / MIC50 Cryptococcus neoformans ATCC 208821: extended panel; for MIC Cryptococcus neoformans ATCC 208821 / MIC: second batch, ≥80 or ≥50% inhibition; for MIC Cn: initial CO-ADD dose-response screening, ≥80% growth inhibition; for MIC: read-out: MIC* Cryptococcus neoformans ATCC 208821; for MIC50 Cryptococcus neoformans ATCC 208821: 50% inhibition, MIC score 2
Outline: as §1

G. mellonella larvae = assay: Galleria mellonella in vivo toxicity assay; conditions: 10 μL of the highest concentration injected, monitored 6 days
Method: Based on criteria of overall antifungal activity, cytotoxicity, and hemolysis as well as compound availability, we selected compounds Co1, Ag2, Eu1, Ir1, Pt1, Pt2, Pt4, Pt5, Au1, Au2, and Au4 to conduct a preliminary in vivo toxicity assay. […] The compounds were dissolved in DMSO and diluted to the highest possible final concentration (Table 3). The larvae were then monitored for 6 days for survival and health using the G. mellonella Health Index Scoring System.[111] […] For the other compounds, no detrimental effects could be observed in the larvae over the monitoring period. […] Nevertheless, factors such as the metabolism, excretion, and/or accumulation of the various metal complexes and their metabolites will still need to be studied more rigorously in rodent models if they are to be advanced into the preclinical pipeline.
The toxicity of compounds was tested in vivo using the G. mellonella model using our previously described methods,[61] Briefly, G. mellonella larvae were reared in a controlled environmental room at Macquarie University, Sydney, Australia, at 30 °C and 65% humidity with a 12-h light/dark cycle. Larvae (200–250 mg) were individually injected with 10 μL of chemical into the last right pro-leg using a 100 μL syringe (Hamilton Ltd.). Each compound was dissolved in DMSO at the maximum concentration given in Table 3 and also diluted in water to final concentrations of 100, 10, and 1 μM. We injected five larvae in triplicate for each of the four dilutions for each compound. Larvae injected with different dilutions of DMSO (10^–1, 10^–2, and 10^–3) were included as negative controls. Following injection, the larvae were incubated at 30 °C and monitored every 24 h for 6 days. Larval performance was assessed according to the G. mellonella Health Index Scoring System.[111] The experiments were repeated over three separate days for biological triplicates.

[6] = tested on: Candida auris CBS10913 JCM 15448; assay: Antifungal MIC assay, extended panel; type: cell-based; conditions: extended panel; for MIC Candida auris CBS10913 / MIC: second batch, ≥80 or ≥50% inhibition; for MIC: read-out: MIC* Candida auris CBS10913; for MIC50 Candida auris CBS10913: 50% inhibition, MIC score 2
Outline: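 This broth dilution MIC test for yeast used colonies cultured 3 days at 30 °C on YPD agar, suspended to 1 × 10^6 to 5 × 10^6 CFU/mL by OD530 and diluted with YNB. Cells were added at a final 2.5 × 10^3 CFU/mL (50 μL total) to 384-well plates with compound, incubated unshaken at 35 °C for 36 h, with fluconazole as an internal control on every plate.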

[7] = tested on: Candida auris CBS12373 KCTC 17810; assay: Antifungal MIC assay, extended panel; type: cell-based; conditions: extended panel; for MIC / MIC Candida auris CBS12373: second batch, ≥80 or ≥50% inhibition; for MIC: read-out: MIC* Candida auris CBS12373; for MIC50 Candida auris CBS12373: 50% inhibition, MIC score 2
Outline: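 This broth microdilution MIC test followed the reference method for antifungal susceptibility testing of yeasts. Fluconazole served as the internal control on every plate. Inoculum came from 3-day YPD agar cultures, was diluted in YNB to 2.5 × 10^3 CFU/mL in 50 μL per well of 384-well plates, and was incubated 36 h at 35 °C. Compounds ran as two technical replicates across two to four independent assays.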

[8] = tested on: Candida albicans ATCC 90028 NCCLS11; assay: Antifungal MIC assay; type: cell-based; conditions: for MIC Ca: initial CO-ADD dose-response screening, ≥80% growth inhibition; for MIC50 Candida albicans ATCC 90028: 50% inhibition, MIC score 2
Outline: as §1

[9] = initial CO-ADD screening, 1 h, 10% hemolysis
[10] = ranges obtained upon retesting, new batch
[11] = extended panel, second batch, ≥80 or ≥50% inhibition

Row | Structure (SMILES) | RBC HC10 (human red blood cells; [10]) [µM] | MIC Cryptococcus deuterogattii CBS7750 [1] [µM] | MIC [7] [µM] | MIC [6] [µM] | MIC Candida tropicalis ATCC 750 [2] [µM] | MIC50 Cryptococcus neoformans ATCC 208821 [5] [µM] | MIC50 Candida auris CBS10913 [6] [µM] | MIC50 Candida auris CBS12373 [7] [µM] | MIC50 Candida albicans ATCC 90028 ([8]; extended panel) [µM] | RBC HC10 (human red blood cells; [9]) | MIC [2] [µM] | MIC [3] [µM] | MIC Cryptococcus deuterogattii ATCC 32609 [4] [µM] | MIC Cryptococcus neoformans ATCC 208821 [5] [µM] | MIC Cn [5] | toxicity (G. mellonella larvae) | MIC Candida auris CBS10913 [6] [µM] | MIC Candida albicans ATCC 90028 [8, 11] [µM] | MIC Ca [8] | MIC Candida auris CBS12373 [7] [µM] | also measured
1 | C1=CCCC=CCC1.[Cl][Pt][Cl] [Pt1] | > 100 | 1.56 to 3.13 | 3.13 | – | – | – | – | – | – | >20 µM | 25 | 25 | 3.125 to 6.25 | 1.56 to 3.13 | 2.5 µM | nontoxic | 6.25 to 12.5 | 12.5 to 25 | 10 µM | – | –
2 | C1=CCCC=CCC1.[I][Pt][I] [Pt2] | > 100 | ≤0.78 to 3.13 | – | 12.5 | – | – | – | – | – | >20 µM | 50 | 50 | 6.25 to 12.5 | 1.56 to 3.13 | 1.25 µM | nontoxic | – | 12.5 to 25 | 10 µM | 3.13 to 6.25 | –
3 | CC(=NN=C(N)[S-])C(C)=NN=C(N)[S-].O=[N+]([O-])[O-].[Co+3].c1c[nH]cn1.c1c[nH]cn1 [Co1] | > 100 | – | – | – | – | – | – | – | – | >32 µg/mL | 0.39 | 100 | 0.78 to 1.56 | 0.39 to 0.78 | 0.5 µg/mL | nontoxic | 0.39 to 0.78 | 0.78 to 1.56 | 0.5 µg/mL | 0.39 to 0.78 | MIC [1]: 1.56 µM

Second part, led by results:

Row | RBC HC10 (human red blood cells; [10]) [µM] | MIC Cryptococcus deuterogattii CBS7750 [1] [µM] | MIC [7] [µM] | MIC [6] [µM] | MIC Candida tropicalis ATCC 750 [2] [µM] | MIC50 Cryptococcus neoformans ATCC 208821 [5] [µM] | MIC50 Candida auris CBS10913 [6] [µM] | MIC50 Candida auris CBS12373 [7] [µM] | MIC50 Candida albicans ATCC 90028 ([8]; extended panel) [µM] | Structure (SMILES) | RBC HC10 (human red blood cells; [9]) | MIC [2] [µM] | MIC [3] [µM] | MIC Cryptococcus deuterogattii ATCC 32609 [4] [µM] | MIC Cryptococcus neoformans ATCC 208821 [5] [µM] | MIC Cn [5] | toxicity (G. mellonella larvae) | MIC Candida auris CBS10913 [6] [µM] | MIC Candida albicans ATCC 90028 [8, 11] [µM] | MIC Ca [8] | MIC Candida auris CBS12373 [7] [µM] | also measured
4 | 13 to 154 | – | ≤0.006 | 0.006 | ≤0.006 to 0.012 | ≤ 0.006 | ≤ 0.006 | ≤ 0.006 | ≤ 0.006 | COc1ccc(/C=C/C2=NN(c3ccc(C(=O)[O][Ag])cc3)C(c3ccc(OC)c(OC)c3)C2)cc1OC.COc1ccc(/C=C/C2=NN(c3ccc(C(=O)[O][Ag])cc3)C(c3ccc(OC)c(OC)c3)C2)cc1OC (racemic) [Ag1, (Ε)-1-(4-Carboxyphenyl)-5-(3,4-dimethoxyphenyl)-3-(3,4-dimethoxystyryl)-2-pyrazoline silver(I) complex] | >32 µg/mL | – | ≤0.006 | 0.006 to 0.024 | – | ≤0.25 µg/mL | – | – | – | ≤0.25 µg/mL | – | MIC [1]: 0.006 µM; MIC [5]: ≤0.006 µM; MIC ([8]; extended panel, second batch, ≥80 or ≥50% inhibition, read-out: MIC* Candida albicans ATCC 90028): ≤0.006 µM
5 | > 100 | ≤0.78 to 1.56 | – | – | 12.5 to 25 | – | – | – | – | CC(C)C([O][Pt][Cl])C1=CCCC=CCC1 (centres unmarked) [Pt4] | >20 µM | – | – | 3.12 to 6.25 | ≤0.78 to 1.56 | 1.25 µM | nontoxic | 6.25 to 12.5 | 6.25 to 12.5 | 10 µM | 1.56 to 3.12 | MIC Candida glabrata ATCC 90030 [3]: 12.5 to 25 µM
6 | > 200 | 0.024 to 0.098 | 0.006 | 0.006 | ≤0.006 to 0.049 | ≤ 0.006 | ≤ 0.006 | ≤ 0.006 | ≤0.006 to 0.012 | Cc1ccc2ccc3ccc(C)nc3c2n1.Cc1ccc2ccc3ccc(C)nc3c2n1.O=C([O][Eu]([O]C(=O)c1ccccc1F)[O]C(=O)c1ccccc1F)c1ccccc1F [Eu1] | >20 µM | – | – | – | – | – | nontoxic | – | ≤0.006 to 0.012 | – | – | hemolysis: none up to stated concentration (human red blood cells; retest): > 200 µM; MIC Candida glabrata ATCC 90030 [3]: 0.024 to 0.098 µM; MIC [4]: 0.024 µM; MIC [5]: ≤0.006 µM
7 | > 200 | 0.006 to 0.098 | – | – | ≤0.006 to 0.049 | ≤0.006 to 0.098 | ≤0.006 to 0.049 | ≤0.006 to 0.098 | ≤0.006 to 0.098 | O=C([O][Ag])c1ccc(N2N=C(/C=C/C=C/c3ccccc3)CC2/C=C/c2ccccc2)cc1.O=C([O][Ag])c1ccc(N2N=C(/C=C/C=C/c3ccccc3)CC2/C=C/c2ccccc2)cc1 (racemic) [Ag2, 1-(4-Carboxyphenyl)-3-{(1E,3E)-4-phenylbuta-1,3-dien-1-yl}-5-{(E)-styryl}-2-pyrazoline silver(I) complex] | >32 µg/mL | – | – | 0.006 to 0.098 | ≤0.006 to 0.098 | ≤0.25 µg/mL | nontoxic | 0.006 to 0.098 | ≤0.006 to 0.098 | ≤0.25 µg/mL | 0.006 to 0.098 | MIC Candida glabrata ATCC 90030 [3]: 0.006 to 0.195 µM
